Legend:
[1] = target: T1, recombinant FSH receptor stably transfected and expressed in Chinese Hamster Ovary cells (Homo sapiens, UniProt P23945); assay: FSH assay: CHO luciferase FSHR (CRE-luciferase reporter, LDR curves); type: cell-based; conditions: FIG. 6, from the graph; duplicate samples; luciferase luminescence in CHO FSHR cells
T1 construct: expressed in transfected cells; host or cells: Chinese Hamster Ovary (CHO) cells, stably transfected, with CRE-luciferase reporter
T1 sequence (P23945 18-695): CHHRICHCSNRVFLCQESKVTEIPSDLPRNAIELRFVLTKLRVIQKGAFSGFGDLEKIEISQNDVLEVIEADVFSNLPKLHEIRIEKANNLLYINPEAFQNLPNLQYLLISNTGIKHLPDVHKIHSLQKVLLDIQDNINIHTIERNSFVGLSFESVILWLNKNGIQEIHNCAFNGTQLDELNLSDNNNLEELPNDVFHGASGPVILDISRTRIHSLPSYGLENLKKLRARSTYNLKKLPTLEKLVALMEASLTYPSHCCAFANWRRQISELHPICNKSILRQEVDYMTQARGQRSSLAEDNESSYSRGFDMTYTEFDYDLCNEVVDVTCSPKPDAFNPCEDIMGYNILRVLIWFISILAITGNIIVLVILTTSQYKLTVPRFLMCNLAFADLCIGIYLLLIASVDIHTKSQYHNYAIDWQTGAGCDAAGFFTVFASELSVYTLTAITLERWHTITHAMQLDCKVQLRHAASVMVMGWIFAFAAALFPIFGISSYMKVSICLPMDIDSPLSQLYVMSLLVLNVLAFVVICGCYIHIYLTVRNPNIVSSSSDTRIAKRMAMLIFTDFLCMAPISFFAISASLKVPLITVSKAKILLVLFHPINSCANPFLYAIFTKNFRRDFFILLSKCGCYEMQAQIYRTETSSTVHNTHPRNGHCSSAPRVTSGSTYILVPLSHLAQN
Text: Compounds were screened for agonist activity at the FSH receptor using the recombinant FSH receptor stably transfected and expressed in Chinese Hamster Ovary cells (CHO cells) essentially as described in the work by Kelton, et al. (Molecular and Cellular Endocrinology, 1992, 89, 141-151). […] An agonist at the FSH receptor increases cAMP in the cell, which results in activation of CREB (cAMP response element binding protein). This molecule interacts with the CRE element upstream of the gene and results in increased transcription of the genes downstream of the element. The substrate for luciferase (Packard Instrument Company, Meriden, Conn., U.S.A.) was added to the cells after appropriate incubation with the compounds of the invention or FSH (used as a positive control). The amount of luciferase expressed was measured by quantitating the luminescence produced by the enzyme using a TopCount scintillation/luminescence counter running in single photon counting mode. A compound that acts as an agonist at the receptor should produce light from the treated cells in proportion to its concentration within the incubation. Luminescence should be saturable at high concentrations of the compound.
The compounds of the invention, in deepwell plates (Master plates) were loaded on the robotic deck along with the appropriate number of assay plates and daughter plates. A 10 μl aliquot from each master plate was transferred to the corresponding daughter plate and 90 μl of DME/F12 was added and mixed within each well. 20 μl was then removed from the daughter plate and dispensed into the assay plate. […] 100 μl of Luclite (prepared as described by the manufacturer) was added to each well and the plate was shaken gently for 40 s prior to placement in the Topcount plate reader. After allowing 3.5 min for the plate to dark-adapt within the machine, the amount of luminescence generated was quantitated using Single Photon Counting mode. […]

[2] = tested on: primary rat granulosa cells; assay: primary rat granulosa cell bioassay (estradiol production by RIA); type: cell-based; conditions: FIG. 7; for estradiol production versus dose: concentrations between 200 nM and 5 μM, decrease in production above this concentration; for EC50: Rattus norvegicus, estradiol in cell supernatants by RIA, read-out: EC50 of stimulated estradiol production
Experimental: In this in vitro assay, conversion of androstendione to estrogen by granulosa cells in the presence of FSH was measured for compounds XVI and XVII. For comparison, FSH was also tested in the assay.
Cells were plated at 5000, 8000, 10,000 and 20,000 cells/ well/ 200 μl of GAB medium on poly-D-lysine-coated 96-well tissue culture plates. Plates were incubated at 37° C. in a 5% CO2/95% air incubator for 3 days. Cultures were washed prior to stimulation with FSH or LH. 50 μl of 4 X concentrations of rhFSH, rhLH or forskolin was added to the cultures. To define the range of the dose response curve the rhFSH was diluted so that the final concentration on the cells was between 10^−7 to 10^−15 M with three doses per log at 1, 2 and 5. Forskolin was diluted so that the final concentration on the cells was 1 μM. Cells were incubated @ 37° C. in 5% CO2. Three days later, cell supernatants were collected and diluted 1:100 in GAB medium for measurement of estradiol by RIA. The RIA was performed according to manufacturer's directions except that an estradiol standard was prepared in absolute ethanol at 100 ng/mL and then further diluted in GAB medium, instead of kit buffer. The concentration of hormone was plotted on the X-axis against the amount of estradiol produced by the cells on the Y-axis using Origin graphics software.
Results of the assay using media only are also shown.

SMILES | EC50 [1] | estradiol production versus dose [2] | EC50 [2]
CCCCCc1ccc(C(=O)N2CC(O)CC2C(=O)Nc2ccc3c(c2)c2ccccc2n3CC)c(=O)o1 (stereo not shown) [compound XIX, 1-[(2-Oxo-6-pentyl-2H-pyran)-3-carbonyl]-4-hydroxypyrrolidine2-carboxylic acid-3-(9-ethylcarbazolyl)amide] | 1.12 µM | – | –
CCCCCc1ccc(C(=O)N2CCCC2C(=O)Nc2ccc3c(c2)c2ccccc2n3CC)c(=O)o1 (stereo not shown) [compound XVI, 1-[(2-Oxo-6-pentyl-2H-pyran)-3-carbonyl]pyrrolidine-2-carboxylic acid-3-(9-ethylcarbazolyl)amide] | 0.0388 µM | increasing estradiol production with increasing dose | 1.4 µM
CCCCCc1ccc(C(=O)N2CCCCC2C(=O)Nc2ccc3c(c2)c2ccccc2n3CC)c(=O)o1 (stereo not shown) [compound XVII, 1-[(2-Oxo-6-pentyl-2H-pyran)-3-carbonyl]piperidine-2-carboxylic acid-3-(9-ethylcarbazolyl)amide] | 0.0039 µM | increasing estradiol production with increasing dose | 1.2 µM

From patent publication US6653338B2 (Applied Research Systems ARS Holding N.A., priority 1998, dated 2003)
